For 27 molecules, IC50 results are on record in patent US9464060B2, “Compounds” (TAKEDA PHARMACEUTICAL COMPANY LIMITED, priority 2013, dated 2016).

One experiment deals with LPA5 receptor (Homo sapiens (Human), UniProt Q9H1C0). In words: In vitro LPA5 receptor assay (LPA-driven intracellular calcium release, FLIPR). Type of experiment: cell-based. The following applies: RH7777 cells expressing human LPA5 receptors; LPA at EC90. As to the method: In Vitro LPA5 Receptor Assay
Engagement of the LPA5 receptor by its ligand, oleoyl-L-α-lysophosphatidic acid (LPA), leads to the release of intracellular stores of calcium into the cytoplasm mediated through a Gq-driven increase in inositol triphosphate (IP3) levels. Gq is a heterotrimeric G protein subunit that activates phospholipase C.
The ability of test compounds to prevent LPA-driven intracellular release of stored calcium from RH7777 cells expressing human LPA5 receptors was assayed by stimulating the cells with LPA in the presence of various test compounds to measure the test compounds'antagonism, i.e. activity in vitro.
(§1) Approximately 10,000 cells in normal culture medium (Minimal Essential Media, 10% Foetal Calf Serum) were dispensed per assay well in a black clear bottom poly-D-lysine coated 384 well plate (Corning). Cells were allowed to settle for thirty minutes at room temperature before being incubated overnight at 37° C., 5% CO2. Sixteen to twenty hours after dispensing, the cells were loaded with a calcium-sensitive fluorescent dye by replacing the culture medium with assay buffer (1× Hanks buffered saline, 25 mM HEPES, 0.1% w/v fatty acid free BSA (bovine serum albumin), pH7.4) containing 1.25 mM probenecid and 1× Calcium 5 Reagent (Molecular Devices). Cells were incubated at 37° C. for one hour to allow for dye uptake.
To test for antagonist activity, test compounds at a final concentration range between 0.32 nM-10 μM (diluted in assay buffer) were added to the assay wells and allowed to incubate for fifteen minutes. […] Ligand-dependent changes in intracellular calcium levels were determined by measuring changes in fluorescence of the dye over […] following excitation over […].

The target of another experiment is human LPA1 receptors (Homo sapiens (Human), UniProt Q92633). As to the kind of experiment: In vitro LPA1 receptor assay (LPA-driven intracellular calcium release, FLIPR). Type of experiment: cell-based. Particulars: RH7777 cells expressing human LPA1 receptors; LPA at EC80. As to the method: In Vitro LPA1 Receptor Assay
Chain of human LPA1 receptors (Q92633 whole entry): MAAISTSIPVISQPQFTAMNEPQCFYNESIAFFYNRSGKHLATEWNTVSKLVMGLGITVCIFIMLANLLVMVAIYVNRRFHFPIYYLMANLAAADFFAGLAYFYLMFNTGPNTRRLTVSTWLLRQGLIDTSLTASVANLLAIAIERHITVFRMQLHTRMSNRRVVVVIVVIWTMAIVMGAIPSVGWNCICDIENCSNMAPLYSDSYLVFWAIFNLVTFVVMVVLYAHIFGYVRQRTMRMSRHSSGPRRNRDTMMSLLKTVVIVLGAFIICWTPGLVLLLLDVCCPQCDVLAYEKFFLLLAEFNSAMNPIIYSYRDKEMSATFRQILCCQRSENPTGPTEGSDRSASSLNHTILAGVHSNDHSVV
Engagement of the LPA1 receptor by its ligand, oleoyl-L-α-lysophosphatidic acid (LPA), leads to the release of intracellular stores of calcium into the cytoplasm mediated through a Gq-driven increase in inositol triphosphate (IP3) levels. Gq is a heterotrimeric G protein subunit that activates phospholipase C.
The ability of test compounds to prevent LPA-driven intracellular release of stored calcium from RH7777 cells expressing human LPA1 receptors was assayed by stimulating the cells with LPA in the presence of various test compounds to measure the test compounds' antagonism, i.e. activity in vitro.
as §1, with “(Dulbecco's Modified Eagle” for “(Minimal Essential”, “collagen” for “poly-D-lysine”, “(Beckton Dickinson).” for “(Corning).”
To test for antagonist activity, test compounds at a final concentration range between 0.32 nM-10 μM (diluted in assay buffer) were added to the assay wells and allowed to incubate for twenty five minutes. […] Ligand-dependent changes in intracellular calcium levels were determined by measuring changes in fluorescence of the dye over […] following excitation over […].
In general terms: A change in cytosolic calcium serves as a functional read-out for many receptors and channels.

As a reminder, the IC50 is the midpoint of a concentration-inhibition curve.

Chain of LPA5 receptor (Q9H1C0 whole entry): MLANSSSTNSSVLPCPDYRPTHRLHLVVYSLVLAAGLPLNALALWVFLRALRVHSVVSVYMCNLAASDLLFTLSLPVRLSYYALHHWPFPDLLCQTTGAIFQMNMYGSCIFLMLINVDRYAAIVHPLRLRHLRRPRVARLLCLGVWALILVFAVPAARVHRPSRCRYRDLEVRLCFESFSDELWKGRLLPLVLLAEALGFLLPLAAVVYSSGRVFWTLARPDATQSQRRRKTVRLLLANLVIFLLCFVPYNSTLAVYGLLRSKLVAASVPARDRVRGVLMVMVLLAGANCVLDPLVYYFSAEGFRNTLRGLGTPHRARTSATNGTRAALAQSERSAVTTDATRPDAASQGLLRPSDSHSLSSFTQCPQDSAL

`O=C(O)c1ccc(CN(CC2CC2)C(=O)c2ccc(Oc3ccccc3F)cc2F)cc1` [Example 54, 4-((N-(Cyclopropylmethyl)-2-fluoro-4-(2-fluorophenoxy)-benzamido)methyl)benzoic acid]: the results for the IC50 at LPA5 receptor and on human LPA1 receptors were 26 nM and 27 nM, respectively.

For `O=C(O)c1ccc(CN(C[C@@H](O)Cc2ccccc2)C(=O)c2ccc(Oc3ccccc3F)cc2)cc1` [Example 19, (S)-4-((4-(2-Fluorophenoxy)-N-(2-hydroxy-3-phenylpropyl)benzamido)methyl)benzoic acid], the IC50 at LPA5 receptor worked out at 9 nM; on human LPA1 receptors, 7 nM.

For the molecule `COc1ccccc1Oc1ccc(C(=O)N(Cc2ccc(C(=O)O)cc2)CC2CC2)nc1` [Example 69, 4-((N-(Cyclopropylmethyl)-5-(2-methoxyphenoxy)-picolinamido)methyl)benzoic acid], the IC50 turned out to be 8 nM on LPA5 receptor and 12 nM on human LPA1 receptors.

In the case of `CCCN(Cc1ccc(C(=O)O)cc1)C(=O)c1ncc(Oc2ccccc2OC)cn1` [Example 85, 4-((5-(2-Methoxyphenoxy)-N-propylpyrimidine-2-carboxamido)methyl)benzoic acid], the IC50 on LPA5 receptor was 120 nM; at human LPA1 receptors, 180 nM.

On to `CCCCN(Cc1ccc(C(=O)O)cc1)C(=O)c1ccc(Oc2ccccc2F)cc1` [Example 75, 4-((N-Butyl-4-(2-fluorophenoxy)benzamido)methyl)benzoic acid], for which the IC50 came out at 22 nM at LPA5 receptor and 31 nM at human LPA1 receptors.

For `COc1cccc(CN(Cc2ccc(C(=O)O)cc2)C(=O)c2ccc(Oc3ccccc3F)cc2)c1` [Example 13, 4-((4-(2-Fluorophenoxy)-N-(3-methoxybenzyl)benzamido)-methyl)benzoic acid], the IC50 at LPA5 receptor amounted to 3 nM; at human LPA1 receptors it was 4 nM.

As to `O=C(O)c1ccc(CN(CC(F)F)C(=O)c2ccc(Oc3ccccc3Cl)cc2)cc1` [Example 78, 4-((4-(2-Chlorophenoxy)-N-(2,2-difluoroethyl)benzamido)methyl)benzoic acid], the IC50 at LPA5 receptor is 170 nM; at human LPA1 receptors, 390 nM.

With `Cc1cccc(C)c1Oc1ccc(C(=O)N(CCc2ccccc2)Cc2ccc(C(=O)O)cc2)cc1` [Example 47, 4-((4-(2,6-Dimethylphenoxy)-N-phenethylbenzamido)methyl)benzoic acid], the figures for the IC50 on LPA5 receptor and at human LPA1 receptors were 11 nM and 22 nM, respectively.

Take `CCCN(Cc1ccc(C(=O)O)cc1)C(=O)c1ccc(Oc2ccc(F)cc2OC)cc1` [Example 80, 4-((4-(4-Fluoro-2-methoxyphenoxy)-N-propylbenzamido)methyl)benzoic acid]: the figures for the half-inhibitory concentration (IC50) on LPA5 receptor and at human LPA1 receptors were 45 nM and 110 nM, respectively.

For `O=C(O)c1ccc(CN(CC(F)(F)F)C(=O)c2ccc(Oc3ccccc3Cl)cc2)cc1` [Example 72, 4-((4-(2-Chlorophenoxy)-N-(2,2,2-trifluoroethyl)benzamido)methyl)benzoic acid], the IC50 amounted to 42 nM on LPA5 receptor and 29 nM on human LPA1 receptors.

For the molecule `O=C(O)c1ccc(CN(CCC2CC2)C(=O)c2ccc(Oc3c(F)cccc3F)cc2)cc1` [Example 38, 4-((N-(2-Cyclopropylethyl)-4-(2,6-difluorophenoxy)benzamido)-methyl)benzoic acid], the IC50 at LPA5 receptor came out at 140 nM; on human LPA1 receptors it was 36 nM.

As to `COc1ccccc1Oc1ccc(C(=O)N(Cc2ccc(C(=O)O)cc2)CC(C)(F)F)cc1` [Example 63, 4-((N-(2,2-Difluoropropyl)-4-(2-methoxyphenoxy)-benzamido)methyl)benzoic acid], the results for the IC50 on LPA5 receptor and on human LPA1 receptors were 10 nM and 7 nM, respectively.

`COc1ccccc1Oc1ccc(C(=O)N(CCCc2ccccc2)Cc2ccc(C(=O)O)cc2)cc1` [Example 32, 4-((4-(2-Methoxyphenoxy)-N-(3-phenylpropyl)benzamido)-methyl)benzoic acid]: the IC50 on LPA5 receptor was 0.4 nM; on human LPA1 receptors it was 2 nM.

Take `O=C(O)c1ccc(CN(CC2CC2)C(=O)c2ccc(Oc3ccccc3F)cn2)cc1` [Example 77, 4-((N-(Cyclopropylmethyl)-5-(2-fluorophenoxy)picolinamido)methyl)benzoic acid]: the IC50 was found to be 74 nM on LPA5 receptor and 86 nM on human LPA1 receptors.

For the molecule `Cc1ccccc1Oc1ccc(C(=O)N(Cc2ccc(C(=O)O)cc2)CC2CC2)cc1` [Example 22, 4-((N-(Cyclopropylmethyl)-4-(o-tolyloxy)benzamido)methyl)benzoic acid], the half-inhibitory concentration (IC50) at LPA5 receptor stood at 24 nM; at human LPA1 receptors, 30 nM.

In the case of `CCN(Cc1ccc(C(=O)O)cc1)C(=O)c1ccc(Oc2ccccc2C)cc1` [Example 73, 4-((N-Ethyl-4-(o-tolyloxy)benzamido)methyl)benzoic acid], the IC50 at LPA5 receptor is 890 nM; on human LPA1 receptors it was 120 nM.

Take `COc1ccc(F)cc1Oc1ccc(C(=O)N(Cc2ccc(C(=O)O)cc2)CC2CC2)cc1` [Example 79, 4-((N-(Cyclopropylmethyl)-4-(5-fluoro-2-methoxyphenoxy)benzamido)methyl)benzoic acid]: the 50% inhibitory concentration (IC50) stood at 68 nM at LPA5 receptor and 94 nM at human LPA1 receptors.

With `COc1ccccc1Oc1ccc(C(=O)N(Cc2ccc(C(=O)O)cc2)CC(C)C)cc1` [Example 30, 4-((N-Isobutyl-4-(2-methoxyphenoxy)benzamido)methyl)benzoic acid], the IC50 on LPA5 receptor and on human LPA1 receptors was 12 nM in each case.

Consider `O=C(O)c1ccc(CN(CC(F)(F)F)C(=O)c2ccc(Oc3ccccc3F)cc2)cc1` [Example 3, 4-((4-(2-Fluorophenoxy)-N-(2,2,2-trifluoroethyl)benzamido)-methyl)benzoic acid], for which the IC50 on LPA5 receptor was determined as 43 nM; at human LPA1 receptors, 35 nM.

Regarding `O=C(O)c1ccc(CN(C[C@@H]2C[C@H]2c2ccccc2)C(=O)c2ccc(Oc3ccccc3F)cc2)cc1` (relative stereo) [Example 18, 4-((4-(2-Fluorophenoxy)-N-((trans-2-phenylcyclopropyl)methyl)-benzamido)methyl)benzoic acid], the concentration for half-maximal inhibition (IC50) at LPA5 receptor stood at 2 nM; at human LPA1 receptors it was 1 nM.

On to `CCCN(Cc1ccc(C(=O)O)cc1)C(=O)c1ccc(Oc2ccccc2OC)cc1` [Example 62, 4-((4-(2-Methoxyphenoxy)-N-propylbenzamido)methyl)benzoic acid], for which the results for the 50% inhibitory concentration (IC50) at LPA5 receptor and at human LPA1 receptors were 9 nM and 5 nM, respectively.

On to `COc1ccccc1Oc1ccc(C(=O)N(Cc2ccc(C(=O)O)cc2)CC2CC2)c(F)c1` [Example 66, 4-((N-(Cyclopropylmethyl)-2-fluoro-4-(2-methoxyphenoxy)benzamido)methyl)benzoic acid], for which the IC50 at LPA5 receptor came to 5 nM; on human LPA1 receptors, 7 nM.

`COc1cc(F)ccc1Oc1ccc(C(=O)N(Cc2ccc(C(=O)O)cc2)CC2CC2)cc1` [Example 68, 4-((N-(Cyclopropylmethyl)-4-(4-fluoro-2-methoxyphenoxy)benzamido)methyl)benzoic acid]: the IC50 on LPA5 receptor stood at 10 nM; at human LPA1 receptors it was 13 nM.

With `CCCN(Cc1ccc(C(=O)O)cc1)C(=O)c1ccc(Oc2ccccc2F)cc1` [Example 60, 4-((4-(2-Fluorophenoxy)-N-propylbenzamido)methyl)benzoic acid], the values for the half-inhibitory concentration (IC50) at LPA5 receptor and on human LPA1 receptors were 60 nM and 33 nM, respectively.

As to `COc1ccccc1Oc1cnc(C(=O)N(Cc2ccc(C(=O)O)cc2)CC2CC2)nc1` [Example 84, 4-((N-(Cyclopropylmethyl)-5-(2-methoxyphenoxy)pyrimidine-2-carboxamido)methyl)benzoic acid], the values for the IC50 at LPA5 receptor and at human LPA1 receptors were 91 nM and 170 nM, respectively.

Consider `O=C(O)c1ccc(CN(CCc2ccccc2)C(=O)c2ccc(Oc3ccccc3Cl)cc2)cc1` [Example 36, 4-((4-(2-Chlorophenoxy)-N-phenethylbenzamido)methyl)benzoic acid], for which the 50% inhibitory concentration (IC50) on LPA5 receptor and at human LPA1 receptors was 24 nM throughout.

Take `Cc1cccc(C)c1Oc1ccc(C(=O)N(Cc2ccccc2)Cc2ccc(C(=O)O)cc2)cc1` [Example 46, 4-((N-Benzyl-4-(2,6-dimethylphenoxy)benzamido)methyl)benzoic acid]: the IC50 amounted to 17 nM on LPA5 receptor and 19 nM at human LPA1 receptors.
